# From patent publication US20080306146A1, “Dosing Regimens for Cox-2 Inhibitor” (AMOREPACIFIC CORPORATION, priority 2005, published 2008)
# Assays:
# clinical = details: male, human, plasma, po
# [1] = plasma pharmacokinetics in healthy male subjects, single oral dose of capsule drug product
# [2] = test system: carrageenan-induced thermal hyperalgesia in male SD rats; details: orally administered; cited from earlier work
# [3] = test system: adjuvant-induced arthritis in male Lewis rats; details: cited from earlier work
# [4] = plasma pharmacokinetics in healthy male subjects, multiple dose (loading plus daily maintenance dose, 8 days); format: in vivo, human
# Text: By assuming an elimination half-life of 4 to 5 days for Compound A, were designed multiple dosing regimens by which steady state plasma concentrations of Compound A are rapidly reached and maintained throughout the dosing period. […] Although only two examples of dosing regimens involving a combination of loading dose and daily maintenance dose are provided in Table 3, it is not intended to limit the dosing regimens of this invention only to those provided in Table 3. Obviously, variations in the loading dose and consequent the daily maintenance dose levels may be conceived depending on indications of subjects. For example a loading dose of 2 mg may be used in combination with a daily maintenance dose of about 0.25 mg/day.
# The dosing regimens of the instant invention were tested in healthy human male subjects. Table 4 provides mean pre-dose plasma levels of Compound A following oral administrations of capsule drug products containing Compound A according to either Regimen A or Regimen B of Table 3 daily once for 8 days. In both dosing regimens, the pre-dose plasma levels remained almost constant.
compound,measurement,setting,value
"CC1(C)OC(c2ccc(S(N)(=O)=O)cc2)=C(c2cccc(F)c2)C1=O [Compound A, 5-{4-(aminosulfonyl)phenyl}-2,2-dimethyl-4-(3-fluorophenyl)-3(2H)furanone]",half-life,clinical,77 to 135 h
same,Cmax,clinical; 1 mg,1.65 ng/mL
same,Cmax,clinical; 5 mg,7.82 ng/mL
same,Cmax,clinical; 8 mg,13.3 ng/mL
same,Cmax,clinical; 12 mg,18.1 ng/mL
same,Terminal Elimination Half-life,[1]; single oral dose 5 mg (Group 2),118 ± 66 h
same,Terminal Elimination Half-life,[1]; single oral dose 8 mg (Group 3),77 ± 8 h
same,Terminal Elimination Half-life,[1]; single oral dose 12 mg (Group 4),135 ± 24 h
same,dose dependence of Cmax,[1]; single oral dose 1 to 12 mg,increased essentially dose proportionally
same,ED50 in carrageenan-induced thermal hyperalgesia,[2],0.25 mg/kg
same,ED50 by adjuvant-induced arthritis,[3],0.1 mg/kg/day
same,Mean Pre-dose Plasma Level,"[4]; Regimen A (3 mg loading, 0.4 mg/day maintenance), Day 2",3.8 ng/mL
same,drug accumulation from the multiple dosings,"[4]; Regimen A and Regimen B, daily once for 8 days",no suggestions of drug accumulation
same,Mean Pre-dose Plasma Level,"[4]; Regimen A, Day 1 (before loading dose)",0 ng/mL
same,Mean Pre-dose Plasma Level,"[4]; Regimen A, Day 3",4.2 ng/mL
same,Mean Pre-dose Plasma Level,"[4]; Regimen A, Day 4",4.0 ng/mL
same,Mean Pre-dose Plasma Level,"[4]; Regimen A, Day 5",4.7 ng/mL
same,Mean Pre-dose Plasma Level,"[4]; Regimen A, Day 6",4.5 ng/mL
same,Mean Pre-dose Plasma Level,"[4]; Regimen A, Day 7",3.6 ng/mL
same,Mean Pre-dose Plasma Level,"[4]; Regimen A, Day 8",3.6 ng/mL
same,Mean Pre-dose Plasma Level,"[4]; Regimen A, Day 9 (no dose)",4.0 ng/mL
same,Mean Pre-dose Plasma Level,"[4]; Regimen B (6 mg loading, 0.8 mg/day maintenance), Day 2",6.2 ng/mL
same,Mean Pre-dose Plasma Level,"[4]; Regimen B, Day 1 (before loading dose)",0 ng/mL
same,Mean Pre-dose Plasma Level,"[4]; Regimen B, Day 3",6.2 ng/mL
same,Mean Pre-dose Plasma Level,"[4]; Regimen B, Day 4",6.3 ng/mL
same,Mean Pre-dose Plasma Level,"[4]; Regimen B, Day 5",6.5 ng/mL
same,Mean Pre-dose Plasma Level,"[4]; Regimen B, Day 6",6.3 ng/mL
same,Mean Pre-dose Plasma Level,"[4]; Regimen B, Day 7",6.6 ng/mL
same,Mean Pre-dose Plasma Level,"[4]; Regimen B, Day 8",7.1 ng/mL
same,Mean Pre-dose Plasma Level,"[4]; Regimen B, Day 9 (no dose)",6.6 ng/mL
same,half-life,"[4]; male, human, plasma, oral, Regimen A and Regimen B, after 8 days of daily once dosing, read-out: mean elimination half-lives following the last dosing",96 to 120 h
"COc1ccc2c(c1)c(CC(=O)O)c(C)n2C(=O)c1ccc(Cl)cc1 [indomethacin, reference compound]",ED50 in carrageenan-induced thermal hyperalgesia,[2],~1.0 mg/kg
same,ED50 by adjuvant-induced arthritis,[3],0.3 mg/kg/day
